From patent publication US12421225B2, “Heteroaromatic amide derivative and medicament containing the same” (KAKEN PHARMACEUTICAL CO., LTD., priority 2018, dated 2025)

Experiments:
[1] = biological target: human Nav1.5 (Homo sapiens (Human), UniProt Q14524); test: Human Nav1.5 inhibitory activity evaluation (automated patch clamp QPatch16X, HEK293 cells stably expressing human Nav1.5); format: cell-based
How it was run: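 IC50 derived from concentration-response of inward current at the 20th of 20 action-potential-mimicking pulses (holding −80 mV, leak corrected with −100 mV step). HEK293 cells stably expressing human Nav1.5, room temperature, extracellular pH 7.4, intracellular CsF-based pH 7.3, 0.1% DMSO.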

[2] = biological target: human Nav1.7 (Homo sapiens (Human), UniProt Q15858); test: Human Nav1.7 inhibitory activity evaluation (automated patch clamp QPatch16X, HEK293A cells stably expressing human Nav1.7 and human Navβ1); format: cell-based
Chain of human Nav1.7 (Q15858 whole entry): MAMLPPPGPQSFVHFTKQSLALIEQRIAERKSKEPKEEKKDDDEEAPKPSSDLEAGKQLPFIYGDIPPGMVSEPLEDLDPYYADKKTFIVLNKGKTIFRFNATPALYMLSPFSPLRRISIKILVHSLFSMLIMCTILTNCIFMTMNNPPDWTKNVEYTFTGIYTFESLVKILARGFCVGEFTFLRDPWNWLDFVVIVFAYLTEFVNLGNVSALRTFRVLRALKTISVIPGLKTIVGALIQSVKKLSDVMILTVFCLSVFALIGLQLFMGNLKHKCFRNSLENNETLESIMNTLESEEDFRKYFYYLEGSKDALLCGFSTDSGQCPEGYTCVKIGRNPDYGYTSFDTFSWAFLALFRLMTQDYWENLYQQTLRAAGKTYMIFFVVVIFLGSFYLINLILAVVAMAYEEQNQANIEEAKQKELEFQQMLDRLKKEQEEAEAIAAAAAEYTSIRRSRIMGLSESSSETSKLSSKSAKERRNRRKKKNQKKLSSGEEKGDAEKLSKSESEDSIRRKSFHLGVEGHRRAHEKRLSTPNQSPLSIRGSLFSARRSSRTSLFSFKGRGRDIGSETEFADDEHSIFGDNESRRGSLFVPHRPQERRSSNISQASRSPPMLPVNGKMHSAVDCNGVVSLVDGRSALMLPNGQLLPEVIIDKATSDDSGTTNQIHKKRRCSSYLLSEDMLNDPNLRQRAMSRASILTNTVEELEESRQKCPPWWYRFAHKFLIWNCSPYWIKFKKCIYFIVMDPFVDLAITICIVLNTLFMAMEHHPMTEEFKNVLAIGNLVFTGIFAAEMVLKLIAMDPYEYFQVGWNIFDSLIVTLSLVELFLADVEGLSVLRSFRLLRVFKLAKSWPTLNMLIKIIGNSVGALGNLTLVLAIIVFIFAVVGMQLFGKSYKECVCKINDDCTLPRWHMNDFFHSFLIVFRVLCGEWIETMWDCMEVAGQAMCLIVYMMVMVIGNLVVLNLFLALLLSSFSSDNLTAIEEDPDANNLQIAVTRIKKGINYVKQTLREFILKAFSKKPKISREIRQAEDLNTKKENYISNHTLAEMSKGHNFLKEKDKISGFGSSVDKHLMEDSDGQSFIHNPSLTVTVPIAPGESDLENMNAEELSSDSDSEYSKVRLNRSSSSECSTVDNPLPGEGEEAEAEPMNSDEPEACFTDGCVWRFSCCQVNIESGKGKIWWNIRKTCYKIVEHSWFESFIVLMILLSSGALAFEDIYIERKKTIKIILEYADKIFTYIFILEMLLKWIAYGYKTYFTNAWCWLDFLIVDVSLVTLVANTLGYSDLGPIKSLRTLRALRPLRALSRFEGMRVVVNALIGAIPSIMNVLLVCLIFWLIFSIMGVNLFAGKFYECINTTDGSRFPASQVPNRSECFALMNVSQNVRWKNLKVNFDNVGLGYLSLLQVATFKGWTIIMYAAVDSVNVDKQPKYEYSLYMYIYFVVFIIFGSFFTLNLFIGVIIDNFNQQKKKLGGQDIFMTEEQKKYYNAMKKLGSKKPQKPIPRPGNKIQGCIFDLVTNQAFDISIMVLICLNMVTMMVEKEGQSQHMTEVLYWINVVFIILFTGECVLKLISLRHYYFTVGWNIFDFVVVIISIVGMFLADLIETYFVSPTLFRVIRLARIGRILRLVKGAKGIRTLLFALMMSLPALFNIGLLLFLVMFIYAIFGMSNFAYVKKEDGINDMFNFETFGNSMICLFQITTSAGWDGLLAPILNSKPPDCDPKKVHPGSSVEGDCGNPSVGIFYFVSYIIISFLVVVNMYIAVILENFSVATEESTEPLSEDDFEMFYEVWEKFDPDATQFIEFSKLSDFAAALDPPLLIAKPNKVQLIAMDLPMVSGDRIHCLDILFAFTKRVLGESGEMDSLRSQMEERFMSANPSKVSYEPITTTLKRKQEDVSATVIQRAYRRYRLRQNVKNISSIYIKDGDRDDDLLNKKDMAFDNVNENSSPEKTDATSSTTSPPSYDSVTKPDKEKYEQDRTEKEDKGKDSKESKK
Chain of human Nav1.7 (Q07699 19-218 partner): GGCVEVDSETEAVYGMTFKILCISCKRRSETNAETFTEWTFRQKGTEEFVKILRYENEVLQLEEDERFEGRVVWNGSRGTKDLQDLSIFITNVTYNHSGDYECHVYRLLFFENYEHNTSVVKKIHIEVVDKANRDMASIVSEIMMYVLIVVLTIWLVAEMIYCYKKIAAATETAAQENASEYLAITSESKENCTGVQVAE
How it was run: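 IC50 calculated from the concentration-response of inward current evoked by the second −10 mV, 50 ms depolarisation, which follows a 15 s conditioning step at roughly 30-40% inactivation and a 100 ms −120 mV interval. Cells: HEK293A expressing human Nav1.7/Navβ1, automated patch clamp, room temperature, 0.1% DMSO final.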

[3] = HEK293 cells stably expressing human Nav1.5, automated patch clamp QPatch16X
[4] = HEK293A cells stably expressing human Nav1.7 and human Navβ1, automated patch clamp QPatch16X
[5] = human Nav1.5, automated patch clamp
[6] = human Nav1.7, automated patch clamp

Chain of human Nav1.5 (Q14524 whole entry): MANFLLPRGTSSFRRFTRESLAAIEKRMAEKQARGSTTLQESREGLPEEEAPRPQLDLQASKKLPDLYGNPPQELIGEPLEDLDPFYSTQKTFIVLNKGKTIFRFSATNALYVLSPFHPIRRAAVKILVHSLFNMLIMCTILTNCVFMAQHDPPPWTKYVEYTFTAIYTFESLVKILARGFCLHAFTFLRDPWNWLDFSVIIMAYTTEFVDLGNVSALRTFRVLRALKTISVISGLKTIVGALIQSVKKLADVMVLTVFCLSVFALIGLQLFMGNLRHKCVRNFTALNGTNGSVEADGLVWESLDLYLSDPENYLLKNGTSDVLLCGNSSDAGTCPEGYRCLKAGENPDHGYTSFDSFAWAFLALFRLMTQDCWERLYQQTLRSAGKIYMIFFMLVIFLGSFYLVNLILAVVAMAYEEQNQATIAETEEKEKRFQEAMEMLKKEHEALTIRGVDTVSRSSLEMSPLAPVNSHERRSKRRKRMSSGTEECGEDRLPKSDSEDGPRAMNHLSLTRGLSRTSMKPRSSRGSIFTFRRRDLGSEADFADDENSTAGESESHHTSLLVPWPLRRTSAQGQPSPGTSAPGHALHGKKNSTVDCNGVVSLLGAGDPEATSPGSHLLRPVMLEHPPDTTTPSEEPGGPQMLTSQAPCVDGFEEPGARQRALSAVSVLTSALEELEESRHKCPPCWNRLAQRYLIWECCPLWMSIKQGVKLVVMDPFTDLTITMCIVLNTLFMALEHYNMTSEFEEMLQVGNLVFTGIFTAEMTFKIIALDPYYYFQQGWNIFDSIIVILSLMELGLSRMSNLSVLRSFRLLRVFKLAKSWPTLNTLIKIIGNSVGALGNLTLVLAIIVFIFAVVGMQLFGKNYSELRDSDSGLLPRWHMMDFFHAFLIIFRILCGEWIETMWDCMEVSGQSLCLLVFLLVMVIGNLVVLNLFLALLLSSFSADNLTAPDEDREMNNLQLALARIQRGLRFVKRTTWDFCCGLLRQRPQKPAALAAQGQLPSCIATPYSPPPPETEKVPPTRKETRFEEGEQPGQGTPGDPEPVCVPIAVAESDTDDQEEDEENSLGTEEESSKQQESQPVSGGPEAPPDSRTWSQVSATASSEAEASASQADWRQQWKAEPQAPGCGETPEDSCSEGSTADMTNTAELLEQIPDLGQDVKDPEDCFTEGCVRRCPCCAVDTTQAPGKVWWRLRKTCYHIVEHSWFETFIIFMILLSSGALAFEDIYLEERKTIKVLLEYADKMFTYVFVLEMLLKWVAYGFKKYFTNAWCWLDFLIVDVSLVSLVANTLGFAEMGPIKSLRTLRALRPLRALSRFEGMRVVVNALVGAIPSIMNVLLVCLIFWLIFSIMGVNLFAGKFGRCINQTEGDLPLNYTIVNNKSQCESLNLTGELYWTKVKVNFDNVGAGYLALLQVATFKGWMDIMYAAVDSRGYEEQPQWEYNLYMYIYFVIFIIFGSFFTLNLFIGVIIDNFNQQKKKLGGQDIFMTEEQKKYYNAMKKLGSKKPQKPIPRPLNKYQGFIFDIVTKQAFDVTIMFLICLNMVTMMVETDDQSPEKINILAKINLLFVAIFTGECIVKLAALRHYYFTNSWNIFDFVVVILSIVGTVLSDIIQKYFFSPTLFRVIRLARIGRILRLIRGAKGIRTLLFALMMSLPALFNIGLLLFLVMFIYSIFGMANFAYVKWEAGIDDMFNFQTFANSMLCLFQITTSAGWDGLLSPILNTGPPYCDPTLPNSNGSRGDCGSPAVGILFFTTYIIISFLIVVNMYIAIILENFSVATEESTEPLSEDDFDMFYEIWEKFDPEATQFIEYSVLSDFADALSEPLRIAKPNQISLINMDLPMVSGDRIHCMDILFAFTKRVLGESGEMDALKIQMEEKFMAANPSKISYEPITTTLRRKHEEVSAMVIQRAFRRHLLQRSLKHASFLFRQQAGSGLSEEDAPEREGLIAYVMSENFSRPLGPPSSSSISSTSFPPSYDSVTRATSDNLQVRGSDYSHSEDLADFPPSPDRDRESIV

Row | SMILES | IC50 [1, 3] | IC50 [2, 4] | IC50 [1, 5] | IC50 [2, 6]
1 | CCOCc1ccc2c(c1)C[C@@H](NC(=O)c1cc3n(n1)CCC(c1ccccc1F)O3)CO2 (stereo partly drawn) [Example 83] | 1000 to 3000 nM | < 1000 nM | – | –
2 | O=C(N[C@H]1COc2ccc(COC3CCOCC3)cc2C1)c1cc2n(n1)CCC(c1ccccc1F)O2 (stereo partly drawn) [Example 84] | ≥ 3000 nM | < 10000 nM | – | –
3 | CC1CCn2nc(C(=O)N[C@H]3COc4ccc(Cl)cc4C3)cc2O1 (stereo partly drawn) [Example 85] | ≥ 3000 nM | < 1000 nM | – | –
4 | C[C@H]1CCn2nc(C(=O)N[C@H]3COc4ccc(Cl)cc4C3)cc2O1 [Example 86] | ≥ 3000 nM | < 1000 nM | – | –
5 | C[C@@H]1CCn2nc(C(=O)N[C@H]3COc4ccc(Cl)cc4C3)cc2O1 [Example 87] | ≥ 3000 nM | < 10000 nM | – | –
6 | CCC1CCn2nc(C(=O)N[C@H]3COc4ccc(Cl)cc4C3)cc2O1 (stereo partly drawn) [Example 90] | 1000 to 3000 nM | < 1000 nM | – | –
7 | CCC1CCn2nc(C(=O)N[C@H]3COc4ccc(C#N)cc4C3)cc2O1 (stereo partly drawn) [Example 91] | ≥ 3000 nM | < 10000 nM | – | –
8 | CCCC1CCn2nc(C(=O)N[C@H]3COc4ccc(C#N)cc4C3)cc2O1 (stereo partly drawn) [Example 94] | 1000 to 3000 nM | < 1000 nM | – | –
9 | N#Cc1ccc2c(c1)C[C@@H](NC(=O)c1cc3n(n1)CCC(CC1CC1)O3)CO2 (stereo partly drawn) [Example 96] | 1000 to 3000 nM | < 1000 nM | – | –
10 | CCCOCC1CCn2nc(C(=O)N[C@H]3COc4ccc(C#N)cc4C3)cc2O1 (stereo partly drawn) [Example 100, N—((R)-6-cyanochroman-3-yl)-5-(propoxymethyl)-6,7-dihydro-5H-pyrazolo[5,1-b][1,3]oxazine-2-carboxamide] | ≥ 3000 nM | < 10000 nM | – | –
11 | O=C(N[C@H]1COc2ccc(Cl)cc2C1)c1cc2n(n1)CCC(COCc1cccc(C(F)(F)F)n1)O2 (stereo partly drawn) [Example 105] | < 1000 nM | < 1000 nM | – | –
12 | O=C(N[C@H]1COc2ccc(CC(F)F)cc2C1)c1cc2n(n1)CCC(COCC1CC1)O2 (stereo partly drawn) [Example 108] | 1000 to 3000 nM | < 1000 nM | – | –
13 | O=C(N[C@H]1COc2ccc(-c3ccccn3)cc2C1)c1cc2n(n1)CCC(COCC1CC1)O2 (stereo partly drawn) [Example 110] | ≥ 3000 nM | < 1000 nM | – | –
14 | CC1(COCC2CCn3nc(C(=O)N[C@H]4COc5ccc(C#N)cc5C4)cc3O2)CC1 (stereo partly drawn) [Example 112] | ≥ 3000 nM | < 1000 nM | – | –
15 | O=C(N[C@H]1COc2ccc(Cl)cc2C1)c1cc2n(n1)CCC(COc1ccccn1)O2 (stereo partly drawn) [Example 117] | < 1000 nM | < 1000 nM | – | –
16 | N#Cc1ccc2c(c1)C[C@@H](NC(=O)c1cc3n(n1)CCC(COc1ccccc1)O3)CO2 (stereo partly drawn) [Example 118] | < 1000 nM | < 1000 nM | – | –
17 | O=C(N[C@H]1COc2ccc(Cl)cc2C1)c1cc2n(n1)CCC(CN1CCOCC1)O2 (stereo partly drawn) [Example 122] | ≥ 3000 nM | < 10000 nM | – | –
18 | CCOCC1CCn2nc(C(=O)N[C@H]3COc4ccc(-c5ccccn5)cc4C3)cc2O1 (stereo partly drawn) [Example 123] | ≥ 3000 nM | < 10000 nM | – | –
19 | CCOCC1CCn2nc(C(=O)N[C@H]3COc4ccc(-c5ccc(C#N)nc5)cc4C3)cc2O1 (stereo partly drawn) [Example 125] | ≥ 3000 nM | < 10000 nM | – | –

Row | SMILES | IC50 [1, 3] | IC50 [2, 4] | IC50 [1, 5] | IC50 [2, 6]
20 | O=C(N[C@H]1COc2ccc(CC(F)F)cc2C1)c1cc2n(n1)CCC(COCC(F)(F)F)O2 (stereo partly drawn) [Example 126] | 1000 to 3000 nM | < 1000 nM | – | –
21 | O=C(N[C@H]1COc2ccc(-c3ccccn3)cc2C1)c1cc2n(n1)CCC(COCC(F)(F)F)O2 (stereo partly drawn) [Example 130] | ≥ 3000 nM | < 10000 nM | – | –
22 | O=C(N[C@H]1COc2ccc(CC(F)F)cc2C1)c1cc2n(n1)CCC(COC(F)(F)F)O2 (stereo partly drawn) [Example 135] | 1000 to 3000 nM | < 1000 nM | – | –
23 | O=C(N[C@H]1COc2ccc(CC(F)F)cc2C1)c1cc2n(n1)CCC(COC(F)F)O2 (stereo partly drawn) [Example 137] | ≥ 3000 nM | < 1000 nM | – | –
24 | O=C(N[C@H]1COc2ccc(COCC(F)(F)F)cc2C1)c1cc2n(n1)CCC(COC(F)F)O2 (stereo partly drawn) [Example 139] | ≥ 3000 nM | < 1000 nM | – | –
25 | O=C(N[C@H]1COc2ccc(CCOC(F)F)cc2C1)c1cc2n(n1)CCC(COC(F)F)O2 (stereo partly drawn) [Example 141] | – | – | ≥ 3000 nM | < 1000 nM
26 | N#Cc1ccc2c(c1)C[C@@H](NC(=O)c1cc3n(n1)CCC(CCOC(F)(F)F)O3)CO2 (stereo partly drawn) [Example 143] | – | – | ≥ 3000 nM | < 1000 nM
27 | N#Cc1ccc2c(c1)C[C@@H](NC(=O)c1cc3n(n1)CCC(CCOC(F)F)O3)CO2 (stereo partly drawn) [Example 145] | – | – | ≥ 3000 nM | < 1000 nM
28 | O=C(N[C@H]1COc2ccc(CC(F)F)cc2C1)c1cc2n(n1)CCC(CCOC(F)F)O2 (stereo partly drawn) [Example 147] | – | – | ≥ 3000 nM | < 1000 nM
29 | O=C(N[C@H]1COc2ccc(COCC(F)(F)F)cc2C1)c1cc2n(n1)CCC(CCOC(F)F)O2 (stereo partly drawn) [Example 149] | – | – | 1000 to 3000 nM | < 1000 nM
30 | O=C(N[C@H]1COc2ccc(Cl)cc2C1)c1cc2n(n1)CCC(CNCC(F)(F)F)O2 (stereo partly drawn) [Example 151] | – | – | 1000 to 3000 nM | < 1000 nM
31 | N#Cc1ccc2c(c1)C[C@@H](NC(=O)c1cc3n(n1)CCC(CSC(F)(F)F)O3)CO2 (stereo partly drawn) [Example 155] | – | – | ≥ 3000 nM | < 10000 nM
32 | O=C(N[C@H]1COc2ccc(Cl)cc2C1)c1cc2n(n1)CCC(C(F)F)O2 (stereo partly drawn) [Example 157] | – | – | ≥ 3000 nM | < 10000 nM
33 | O=C(N[C@H]1COc2ccc(Br)cc2C1)c1cc2n(n1)CCC(C(F)F)O2 (stereo partly drawn) [Example 159, N—((R)-6-bromochroman-3-yl)-5-(difluoromethyl)-6,7-dihydro-5H-pyrazolo[5,1-b][1,3]oxazine-2-carboxamide] | – | – | ≥ 3000 nM | < 1000 nM
34 | O=C(N[C@H]1COc2ccc(COCC(F)(F)F)cc2C1)c1cc2n(n1)CCC(C(F)F)O2 (stereo partly drawn) [Example 162] | – | – | ≥ 3000 nM | < 1000 nM
35 | O=C(N[C@H]1COc2ccc(CCOC(F)F)cc2C1)c1cc2n(n1)CCC(C(F)F)O2 (stereo partly drawn) [Example 164] | – | – | ≥ 3000 nM | < 1000 nM
36 | CC(F)(F)C1CCn2nc(C(=O)N[C@H]3COc4ccc(Cl)cc4C3)cc2O1 (stereo partly drawn) [Example 167] | – | – | 1000 to 3000 nM | < 1000 nM
37 | CCC(O)(CC)C1CCn2nc(C(=O)N[C@H]3COc4ccc(Cl)cc4C3)cc2O1 (stereo partly drawn) [Example 168] | – | – | ≥ 3000 nM | < 10000 nM
38 | O=C(N[C@H]1COc2ccc(Cl)cc2C1)c1cc2n(n1)CCC(C(F)(F)F)O2 (stereo partly drawn) [Example 169] | – | – | 1000 to 3000 nM | < 1000 nM

Row | SMILES | IC50 [1, 3] | IC50 [2, 4] | IC50 [1, 5] | IC50 [2, 6]
39 | O=C(N[C@H]1COc2ccc(Br)cc2C1)c1cc2n(n1)CCC(C(F)(F)F)O2 (stereo partly drawn) [Example 171] | – | – | 1000 to 3000 nM | < 1000 nM
40 | O=C(N[C@H]1COc2ccc(CC(F)F)cc2C1)c1cc2n(n1)CCC(C(F)(F)F)O2 (stereo partly drawn) [Example 172] | – | – | ≥ 3000 nM | < 10000 nM
41 | N#Cc1ccc(-c2ccc3c(c2)C[C@@H](NC(=O)c2cc4n(n2)CCC(C(F)(F)F)O4)CO3)cn1 (stereo partly drawn) [Example 174] | – | – | ≥ 3000 nM | < 1000 nM
42 | Cc1ccc(-c2ccc3c(c2)C[C@@H](NC(=O)c2cc4n(n2)CCC(C(F)(F)F)O4)CO3)cn1 (stereo partly drawn) [Example 175] | – | – | ≥ 3000 nM | < 10000 nM
43 | CC1(C)CCn2nc(C(=O)N[C@H]3COc4ccc(Cl)cc4C3)cc2O1 [Example 177] | – | – | 1000 to 3000 nM | < 1000 nM
44 | CC1(C)CCn2nc(C(=O)N[C@H]3COc4ccc(C#N)cc4C3)cc2O1 [Example 178] | – | – | ≥ 3000 nM | < 10000 nM
45 | O=C(N[C@H]1COc2ccccc2C1)c1cc2n(n1)CC(c1ccccc1)O2 (stereo partly drawn) [Example 181] | – | – | ≥ 3000 nM | < 1000 nM
46 | O=C(N[C@H]1COc2ccc(COCC(F)(F)F)cc2C1)c1cc2n(n1)CC(COCC1CC1)O2 (stereo partly drawn) [Example 185] | – | – | ≥ 3000 nM | < 1000 nM
47 | O=C(N[C@H]1COc2ccc(COCC(F)(F)F)cc2C1)c1cc2n(n1)CC(COCC(F)(F)F)O2 (stereo partly drawn) [Example 187, 2-((2,2,2-trifluoroethoxy)methyl)-N—((R)-6-((2,2,2-trifluoroethoxy)methyl)chroman-3-yl)-2,3-dihydropyrazolo[5,1-b]oxazole-6-carboxamide] | – | – | ≥ 3000 nM | < 1000 nM
48 | O=C(N[C@H]1COc2ccc(CCOC(F)F)cc2C1)c1cc2n(n1)CC(COCC(F)(F)F)O2 (stereo partly drawn) [Example 189] | – | – | ≥ 3000 nM | < 1000 nM
49 | O=C(N[C@H]1COc2ccc(COCC(F)(F)F)cc2C1)c1cc2n(n1)CC(COC(F)(F)F)O2 (stereo partly drawn) [Example 195] | – | – | ≥ 3000 nM | < 1000 nM
50 | O=C(N[C@H]1COc2ccc(CC(F)F)cc2C1)c1cc2n(n1)CC(COC(F)(F)F)O2 (stereo partly drawn) [Example 197] | – | – | ≥ 3000 nM | < 1000 nM
51 | N#Cc1ccc2c(c1)C[C@@H](NC(=O)c1cc3n(n1)CC(CSCC(F)(F)F)O3)CO2 (stereo partly drawn) [Example 199] | – | – | ≥ 3000 nM | < 10000 nM
52 | N#Cc1ccc2c(c1)C[C@@H](NC(=O)c1cc3n(n1)CC(CCOCC1CC1)O3)CO2 (stereo partly drawn) [Example 201, N—((R)-6-cyanochroman-3-yl)-2-(2-(cyclopropylmethoxy)ethyl)-2,3-dihydropyrazolo[5,1-b]oxazole-6-carboxamide] | – | – | 1000 to 3000 nM | < 1000 nM
53 | Cn1ccc(-c2ccc3c(c2)C[C@@H](NC(=O)c2cc4n(n2)CC(CCOCC(F)(F)F)O4)CO3)n1 (stereo partly drawn) [Example 205] | – | – | ≥ 3000 nM | < 10000 nM
54 | N#Cc1ccc2c(c1)C[C@@H](NC(=O)c1cc3n(n1)CC(CCOC(F)(F)F)O3)CO2 (stereo partly drawn) [Example 208] | – | – | < 1000 nM | < 1000 nM
55 | Cn1ccc(-c2ccc3c(c2)C[C@@H](NC(=O)c2cc4n(n2)CC(CCOC(F)(F)F)O4)CO3)n1 (stereo partly drawn) [Example 212] | – | – | ≥ 3000 nM | < 1000 nM
56 | O=C(N[C@H]1COc2ccc(COCC(F)(F)F)cc2C1)c1cc2n(n1)CC(CCOC(F)F)O2 (stereo partly drawn) [Example 214] | – | – | 1000 to 3000 nM | < 1000 nM
57 | O=C(N[C@H]1COc2ccc(CC(F)F)cc2C1)c1cc2n(n1)CC(CCOC(F)F)O2 (stereo partly drawn) [Example 218] | – | – | ≥ 3000 nM | < 1000 nM
